From patent US9102670B2, “Pyrido-, pyrazo- and pyrimido-pyrimidine derivatives as mTOR inhibitors” (KuDOS Pharmaceuticals Limited, priority 2006, dated 2015) come the findings set out here.

One assay relates to phosphorylation of Serine 473 in Akt. Kind of assay: In Vitro Phospho-Ser473 Akt Assay in MDA-MB-468 cells. It counts as cell-based. Particulars: Homo sapiens, MDA-MB-468, read-out: IC50 values against mTOR, phospho-Ser473 Akt assay, MDA-MB-468 cells.
As to `C[C@H]1COCCN1c1nc(N2CCOC[C@@H]2C)c2ccc(-c3ccc(F)cc3)nc2n1` [Example 1aa], the IC50 is under 100 nM.
Consider `C[C@H]1COCCN1c1nc(N2CCOC[C@@H]2C)c2ccc(-c3ccc(F)c(C(N)=O)c3)nc2n1` [Example 1ab], for which the half-inhibitory concentration (IC50) was under 300 nM.
As for `CCCNC(=O)c1cc(-c2ccc3c(N4CCOC[C@@H]4C)nc(N4CCOC[C@@H]4C)nc3n2)ccc1F` [Example 1ac], the IC50 is under 100 nM.
Take `CNC(=O)c1cc(-c2ccc3c(N4CCOC[C@@H]4C)nc(N4CCOC[C@@H]4C)nc3n2)ccc1F` [Example 1ae]: the IC50 was under 100 nM.
For the compound `CCNC(=O)c1cc(-c2ccc3c(N4CCOC[C@@H]4C)nc(N4CCOC[C@@H]4C)nc3n2)ccc1F` [Example 1af], the IC50 was under 100 nM.
Consider `C[C@H]1COCCN1c1nc(N2CCOC[C@@H]2C)c2ccc(-c3ccc(F)c(C(=O)NCCO)c3)nc2n1` [Example 1ag], for which the IC50 is under 100 nM.
For the compound `CC(C)NC(=O)c1cccc(-c2ccc3c(N4CCOC[C@@H]4C)nc(N4CCOC[C@@H]4C)nc3n2)c1` [Example 1al], the IC50 was under 100 nM.
On the same count and under the same terms, as for `C[C@H]1COCCN1c1nc(N2CCOC[C@@H]2C)c2ccc(-c3ccc(S(C)(=O)=O)cc3)nc2n1` [Example 1am], the figure is under 300 nM; as for `C[C@H]1COCCN1c1nc(N2CCOC[C@@H]2C)c2ccc(-c3ccc(C(N)=O)cc3)nc2n1` [Example 1ao], under 300 nM.
The same measure, in the same setting: as for `C[C@H]1COCCN1c1nc(N2CCOC[C@@H]2C)c2ccc(-c3cccc(C(N)=O)c3)nc2n1` [Example 1as], the figure is under 100 nM; as for `C[C@H]1COCCN1c1nc(N2CCOC[C@@H]2C)c2ccc(-c3cccc(NS(C)(=O)=O)c3)nc2n1` [Example 1at], under 100 nM.
As for `C[C@H]1COCCN1c1nc(N2CCOC[C@@H]2C)c2ccc(-c3cc(F)nc(F)c3)nc2n1` [Example 1ay], the IC50 is under 300 nM.
Still for that read-out and setting: as for `COC(=O)c1cccc(-c2ccc3c(N4CCOC[C@@H]4C)nc(N4CCOC[C@@H]4C)nc3n2)c1` [Example 1ba], the figure is under 100 nM; as for `COCc1cccc(-c2ccc3c(N4CCOC[C@@H]4C)nc(N4CCOC[C@@H]4C)nc3n2)c1` [Example 1bb], under 100 nM; as for `C[C@H]1COCCN1c1nc(N2CCOC[C@@H]2C)c2ccc(-c3ccc(F)c(CO)c3)nc2n1` [Example 1bc], under 100 nM.
On the same count and under the same terms, as for `C[C@H]1COCCN1c1nc(N2CCOC[C@@H]2C)c2ccc(-c3cccc(S(N)(=O)=O)c3)nc2n1` [Example 1bd], the figure is under 300 nM; as for `COCCNC(=O)c1cccc(-c2ccc3c(N4CCOC[C@@H]4C)nc(N4CCOC[C@@H]4C)nc3n2)c1` [Example 1be], under 100 nM; as for `COC(=O)c1cc(-c2ccc3c(N4CCOC[C@@H]4C)nc(N4CCOC[C@@H]4C)nc3n2)ccc1OC` [Example 1bg], under 100 nM.
`C[C@H]1COCCN1c1nc(N2CCOC[C@@H]2C)c2ccc(-c3ccc(F)c(NS(C)(=O)=O)c3)nc2n1` [Example 1bk]: the IC50 is under 300 nM.
On to `C[C@H]1COCCN1c1nc(N2CCOC[C@@H]2C)c2ccc(-c3ccc(C#N)cc3)nc2n1` [Example 1bl], for which the IC50 is under 100 nM.
The same measure, in the same setting: in the case of `C[C@H]1COCCN1c1nc(N2CCOC[C@@H]2C)c2ccc(-c3ccc4[nH]ccc4c3)nc2n1` [Example 1bm] it was under 100 nM; in that of `COc1ccc(-c2ccc3c(N4CCOC[C@@H]4C)nc(N4CCOC[C@@H]4C)nc3n2)cc1` [Example 1bo], under 300 nM; in that of `C[C@H]1COCCN1c1nc(N2CCOC[C@@H]2C)c2ccc(-c3ccc(Cl)cc3)nc2n1` [Example 1bp], under 300 nM.
Same read-out and setting: in the case of `Cc1cccc(-c2ccc3c(N4CCOC[C@@H]4C)nc(N4CCOC[C@@H]4C)nc3n2)c1` [Example 1br] it was under 100 nM; in that of `COc1ccc(-c2ccc3c(N4CCOC[C@@H]4C)nc(N4CCOC[C@@H]4C)nc3n2)cc1F` [Example 1bs], under 100 nM; in that of `C[C@H]1COCCN1c1nc(N2CCOC[C@@H]2C)c2ccc(-c3ccoc3)nc2n1` [Example 1bv], under 100 nM.
Regarding `C[C@@H]1CN(c2nc(N3CCOC[C@@H]3C)c3ccc(-c4cccc(CO)c4)nc3n2)C[C@H](C)O1` [Example 1bx], the IC50 was under 300 nM.
Still for that read-out and setting: as for `C[C@@H]1CN(c2nc(N3CCOC[C@@H]3C)c3ccc(-c4ccc(CO)cc4)nc3n2)C[C@H](C)O1` [Example 1by], the figure is under 300 nM; as for `C[C@@H]1CN(c2nc(N3CCOC[C@@H]3C)c3ccc(-c4cccc(O)c4)nc3n2)C[C@H](C)O1` [Example 1bz], under 100 nM.
On the same count and under the same terms, as for `C[C@@H]1CN(c2nc(N3CCOC[C@@H]3C)c3ccc(-c4ccoc4)nc3n2)C[C@H](C)O1` [Example 1cf], the figure is under 300 nM.
Still for that read-out and setting: as for `C[C@@H]1CN(c2nc(N3CCOC[C@@H]3C)c3ccc(-c4ccc(O)cc4)nc3n2)C[C@H](C)O1` [Example 1cg], the figure is under 100 nM; as for `C[C@@H]1CN(c2nc(N3CCOC[C@@H]3C)c3ccc(-c4ccc([N+](=O)[O-])cc4)nc3n2)C[C@H](C)O1` [Example 1ci], under 300 nM; as for `COc1ccc(-c2ccc3c(N4CCOC[C@@H]4C)nc(N4C[C@@H](C)O[C@@H](C)C4)nc3n2)cc1` [Example 1cj], under 300 nM.
For `CNC(=O)c1ccc(-c2ccc3c(N4CCOC[C@@H]4C)nc(N4CCOC[C@@H]4C)nc3n2)cc1F` [Example 1cv], the IC50 is under 300 nM.
As for `C[C@H]1COCCN1c1nc(N2CCOC[C@@H]2C)c2ccc(-c3ccccc3)nc2n1` [Example 1d], the IC50 was under 100 nM.
Turning to `C[C@H]1COCCN1c1nc(N2CCOC[C@@H]2C)c2ccc(-c3ccc(O)cc3)nc2n1` [Example 1e], the IC50 was under 100 nM.
For the compound `Cc1ccc(-c2ccc3c(N4CCOC[C@@H]4C)nc(N4CCOC[C@@H]4C)nc3n2)cc1` [Example 1f], the IC50 is under 100 nM.
`C[C@H]1COCCN1c1nc(N2CCOC[C@@H]2C)c2ccc(-c3ccc(CO)cc3)nc2n1` [Example 1g]: the IC50 was under 100 nM.
For `C[C@H]1COCCN1c1nc(N2CCOC[C@@H]2C)c2ccc(-c3cccc(O)c3)nc2n1` [Example 1h], the IC50 is under 100 nM.
Still for that read-out and setting: as for `C[C@H]1COCCN1c1nc(N2CCOC[C@@H]2C)c2ccc(-c3cccc(CO)c3)nc2n1` [Example 1i], the figure is under 100 nM.

The same assay, now with this note: Homo sapiens, MDA-MB-468, read-out: IC50 values against mTOR, phospho-Ser473 Akt assay, MDA-MB-468 cells, upper bound.
Turning to `C[C@H]1COCCN1c1nc(N2CCOC[C@@H]2C)c2ccc(-c3ccc(F)nc3)nc2n1` [Example 1ah], the IC50 was under 1000 nM.
Regarding `C[C@H]1COCCN1c1nc(N2CCOC[C@@H]2C)c2ccc(-c3ccncc3)nc2n1` [Example 1ar], the IC50 was under 1000 nM.
On to `C[C@H]1COCCN1c1nc(N2CCOC[C@@H]2C)c2ccc(-c3ccnc(F)c3)nc2n1` [Example 1au], for which the IC50 is under 1000 nM.
Turning to `C[C@H]1COCCN1c1nc(N2CCOC[C@@H]2C)c2ccc(-c3cccc(C#N)c3)nc2n1` [Example 1aw], the IC50 was under 1000 nM.
The same measure, in the same setting: as for `C[C@H]1COCCN1c1nc(N2CCOC[C@@H]2C)c2ccc(-c3cccc(C(=O)N4CCN(C)CC4)c3)nc2n1` [Example 1bf], the figure is under 1000 nM; as for `C[C@H]1COCCN1c1nc(N2CCOC[C@@H]2C)c2ccc(-c3cccnc3)nc2n1` [Example 1bu], under 1000 nM.
`C[C@@H]1CN(c2nc(N3CCOC[C@@H]3C)c3ccc(-c4ccncc4)nc3n2)C[C@H](C)O1` [Example 1ce]: the 50% inhibitory concentration (IC50) was under 1000 nM.
As for `C[C@H]1COCCN1c1nc(N2CCOC[C@@H]2C)c2ccc(-c3ccc4nc[nH]c(=O)c4c3)nc2n1` [Example 1cl], the IC50 is under 1000 nM.

The IC50 is the point on the concentration scale where inhibition reaches its midpoint.
